Laboratory results published in PMC6273746, “Molecular Mechanism of the Flavonoid Natural Product Dryocrassin ABBA against Staphylococcus aureus Sortase A” (Molecules, 2016).

Legend:
Assay type in all cases: binding
[1] = target: T1, sortase A (SrtA), V168A-SrtA (Staphylococcus aureus, UniProt Q2FV99, V168A); experiment: fluorescence quenching (KA); reduced inhibition versus WT in FRET assay at […]
T1 construct: SrtA△N59, recombinant, GST tag cleaved

[2] = target: T2, sortase A (SrtA), WT-SrtA (Staphylococcus aureus, UniProt Q2FV99); experiment: fluorescence quenching (KA); also FRET inhibition of purified SrtA, IC50 […]
T2 construct: SrtA△N59, recombinant, GST tag cleaved

[3] = target: T3, sortase A (SrtA), V166A-SrtA (Staphylococcus aureus, UniProt Q2FV99, V166A); experiment: fluorescence quenching (KA); reduced inhibition versus WT in FRET assay at […]
T3 construct: SrtA△N59, recombinant, GST tag cleaved

Structure (SMILES): CCCC(=O)c1c(O)c(CC2=C(O)C(C)(C)C(=O)C(C(C)=O)=C2O)c(O)c(Cc2c(O)c(CC3=C(O)C(C)(C)C(=O)C(C(C)=O)=C3O)c(O)c(C(=O)CCC)c2O)c1O [ABBA, dryocrassin ABBA]
- Kd [1]: 2790 nM
- Kd [2]: 2180 nM
- Kd [3]: 2300 nM
